Measured values published in patent US20240368156A1, “2-AZABICYCLO[2.2.1]HEPTANE KRAS INHIBITORS” (INCYTE CORPORATION, priority 2023, published 2024).

Columns and labels:
[1] = molecular target: KRAS G12D (Homo sapiens, UniProt P01116, G12D); assay: GDP-GTP exchange assay (bodipy-GDP/GppNHp, SOS1), KRAS G12D; format: biochemical; settings: 2.5 nM bodipy-loaded KRAS G12D, 4 h pre-incubation, 2 h reaction with GppNHp and SOS1; for certain compounds the most potent isomer is quoted; read-out: KRAS_G12D exchange assay IC50
Sequence of KRAS G12D (P01116 1-188 isoform P01116-2 G12D): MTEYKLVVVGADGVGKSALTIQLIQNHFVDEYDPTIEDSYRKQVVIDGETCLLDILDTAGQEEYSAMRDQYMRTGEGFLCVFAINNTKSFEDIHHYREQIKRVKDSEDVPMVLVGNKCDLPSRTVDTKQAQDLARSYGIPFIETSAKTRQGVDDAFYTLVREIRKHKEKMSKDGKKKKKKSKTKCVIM
Protocol: (§1) The inhibitor potency of the exemplified compounds was determined in a fluorescence based guanine nucleotide exchange assay, which measures the exchange of bodipy-GDP (fluorescently labeled GDP) for GppNHp (Non-hydrolyzable GTP analog) to generate the active state of KRAS in the presence of SOS1 (guanine nucleotide exchange factor). Inhibitors were serially diluted in DMSO and a volume of 0.1 μL was transferred to the wells of a black low volume 384-well plate. 5 µL/well volume of bodipy-loaded KRAS G12D diluted to 2.5 nM in assay buffer (25 mM Hepes pH 7.5, 50 mM NaCl, 10 mM MgCl2 and 0.01% Brij-35) was added to the plate and pre-incubated with inhibitor for 4 h at r.t. Appropriate controls (enzyme with no inhibitor or with a G12D inhibitor) were included on the plate. The exchange was initiated by the addition of a 5 μL/well volume containing 1 mM GppNHp and 300 nM SOS1 in assay buffer. The 10 μL/well reaction concentration of the bodipy-loaded KRAS G12D, GppNHp, and SOS1 were 2.5 nM, 500 μM, and 150 nM, respectively. The reaction plates were incubated at r.t. for 2 h, a time estimated for complete GDP-GTP exchange in the absence of inhibitor. For the KRAS G12V mutant, similar guanine nucleotide exchange assays were used with 2.5 nM as final concentration for the bodipy loaded KRAS proteins and 3 h incubation after adding GppNHp-SOS1 mixture. A cyclic peptide described to selectively bind G12D mutant (Sakamoto et al., BBRC 484.3 (2017), 605-611) or internal compounds with confirmed binding were used as positive controls in the assay plates. Fluorescence intensities were measured on a PheraStar plate reader instrument (BMG Labtech) with excitation at 485 nm and emission at 520 nm.
(§2) Either GraphPad prism or Genedata Screener SmartFit was used to analyze the data. The IC50 values were derived by fitting the data to a four parameter logistic equation producing a sigmoidal dose-response curve with a variable Hill coefficient.
(§3) The symbol “†” indicates IC50≤100 nM, “††” indicates IC50>100 nM but ≤1 μM; and “†††” indicates IC50 is >1 μM but ≤5 μM, “††††” indicates IC50 is >5 µM but ≤10 μM. “NA” indicates IC50 not available.

[2] = molecular target: KRAS G12V (Homo sapiens, UniProt P01116, G12V); assay: GDP-GTP exchange assay (bodipy-GDP/GppNHp, SOS1), KRAS G12V; format: biochemical; settings: 2.5 nM bodipy-loaded KRAS G12V, 3 h incubation after adding GppNHp-SOS1; for certain compounds the most potent isomer is quoted; read-out: KRAS_G12V exchange assay IC50
Sequence of KRAS G12V (P01116 1-188 isoform P01116-2 G12V): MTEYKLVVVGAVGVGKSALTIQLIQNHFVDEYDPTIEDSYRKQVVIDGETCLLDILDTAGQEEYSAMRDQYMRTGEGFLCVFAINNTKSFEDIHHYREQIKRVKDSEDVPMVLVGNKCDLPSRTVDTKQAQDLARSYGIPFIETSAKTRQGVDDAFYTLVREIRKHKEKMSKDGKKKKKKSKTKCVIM
Protocol: as §1, §2, §3

Compound	IC50 [1] [µM]	IC50 [2] [µM]
Cc1nc2c(F)c(-c3cccc(Cl)c3Cl)c(CCC#N)cc2c2c1cc([C@H]1[C@H]3C[C@H](C[C@@H]3C(F)F)N1C(=O)C1(F)CC1)n2[C@H]1[C@H]2CN[C@@H]1C2 (atropisomer, axis not shown; (Ra)) [Example 44, 3-((Ra)-1-((1R,4R,5S)-2-Azabicyclo[2.1.1]hexan-5-yl)-7-(2,3-dichlorophenyl)-2-((1R,3R,4S,5S)-5-(difluoromethyl)-2-(1-fluorocyclopropane-1-carbonyl)-2-azabicyclo[2.2.1]heptan-3-yl)-6-fluoro-4-methyl-1H-pyrrolo[3,2-c]quinolin-8-yl)propanenitrile]	≤ 0.1	≤ 0.1
Cc1nc2c(F)c(-c3cccc(Cl)c3Cl)c(CCC#N)cc2c2c1cc([C@H]1[C@H]3C[C@H](C[C@@H]3Oc3cccnc3)N1C(=O)C1CC1)n2[C@H]1[C@H]2CN[C@@H]1C2 (atropisomer, axis not shown; (Ra)) [Example 5, 3-((Ra)-1-((1R,4R,5S)-2-Azabicyclo[2.1.1]hexan-5-yl)-2-((1R,3R,4R,5S)-2-(cyclopropanecarbonyl)-5-(pyridin-3-yloxy)-2-azabicyclo[2.2.1]heptan-3-yl)-7-(2,3-dichlorophenyl)-6-fluoro-4-methyl-1H-pyrrolo[3,2-c]quinolin-8-yl)propanenitrile]	≤ 0.1	≤ 0.1
C[C@@H](O)c1nc2c(F)c(-c3cccc(Cl)c3Cl)c(CCC#N)cc2c2c1cc([C@H]1[C@H]3C[C@H](C[C@@H]3OC3CC3)N1C(=O)C1(F)CC1)n2[C@H]1[C@H]2CN[C@@H]1C2 (single isomer, unassigned) [Example 38]	≤ 0.1	≤ 0.1
Cc1nc2c(F)c(-c3cccc(Cl)c3Cl)c(CCC#N)cc2c2c1cc([C@H]1[C@H]3C[C@H](C[C@@H]3OCc3ccccc3)N1C(=O)C1CC1)n2[C@H]1[C@H]2CN[C@@H]1C2 (atropisomer, axis not shown; (Ra)) [Example 6, 3-((Ra)-2-((1R,3R,4R,5S)-5-(Benzyloxy)-2-(cyclopropanecarbonyl)-2-azabicyclo[2.2.1]heptan-3-yl)-1-((1R,4R,5S)-2-azabicyclo[2.1.1]hexan-5-yl)-7-(2,3-dichlorophenyl)-6-fluoro-4-methyl-1H-pyrrolo[3,2-c]quinolin-8-yl)propanenitrile]	≤ 0.1	≤ 0.1
CC(C)(O)c1ccc(-c2nc3c(F)c(-c4cccc(Cl)c4Cl)c(CCC#N)cc3c3c2cc([C@H]2[C@@H]4CC[C@@H](C4)N2C(=O)C2CC2)n3[C@H]2[C@H]3CN[C@@H]2C3)cn1 [Example 13, 3-(1-((1R,4R,5S)-2-azabicyclo[2.1.1]hexan-5-yl)-2-((1S,3R,4R)-2-(cyclopropanecarbonyl)-2-azabicyclo[2.2.1]heptan-3-yl)-7-(2,3-dichlorophenyl)-6-fluoro-4-(6-(2-hydroxypropan-2-yl)pyridin-3-yl)-1H-pyrrolo[3,2-c]quinolin-8-yl)propanenitrile]	≤ 0.1	≤ 0.1
Cc1nc2c(F)c(-c3cccc(Cl)c3Cl)c(CCC#N)cc2c2c1cc([C@H]1[C@H]3C[C@H](C[C@@H]3OC(F)F)N1C(=O)C1(F)CC1)n2[C@H]1[C@H]2CN[C@@H]1C2 (atropisomer, axis not shown; (Ra)) [Example 10, 3-((Ra)-1-((1R,4R,5S)-2-Azabicyclo[2.1.1]hexan-5-yl)-7-(2,3-dichlorophenyl)-2-((1R,3R,4R,5S)-5-(difluoromethoxy)-2-(1-fluorocyclopropane-1-carbonyl)-2-azabicyclo[2.2.1]heptan-3-yl)-6-fluoro-4-methyl-1H-pyrrolo[3,2-c]quinolin-8-yl)propanenitrile]	≤ 0.1	≤ 0.1
C[C@@H](O)c1nc2c(F)c(-c3cccc(Cl)c3Cl)c(CCC#N)cc2c2c1cc([C@H]1[C@H]3C[C@H](C[C@@H]3OC(F)F)N1C(=O)C1(F)CC1)n2[C@H]1[C@H]2CN[C@@H]1C2 (single isomer, unassigned) [Example 37]	≤ 0.1	≤ 0.1

Now from value to compound:

IC50 [1] [µM]	IC50 [2] [µM]	Compound
≤ 0.1	≤ 0.1	Cc1nc2c(F)c(-c3cccc(Cl)c3Cl)c(CCC#N)cc2c2c1cc([C@H]1[C@H]3C[C@H](C[C@@H]3Oc3ccncc3)N1C(=O)C1CC1)n2[C@H]1[C@H]2CN[C@@H]1C2 (atropisomer, axis not shown) [Example 31, 3-((R)-1-((1R,4R,5S)-2-azabicyclo[2.1.1]hexan-5-yl)-2-((1R,3R,4R,5S)-2-(cyclopropanecarbonyl)-5-(pyridin-4-yloxy)-2-azabicyclo[2.2.1]heptan-3-yl)-7-(2,3-dichlorophenyl)-6-fluoro-4-methyl-1H-pyrrolo[3,2-c]quinolin-8-yl)propanenitrile]
≤ 0.1	≤ 0.1	Cc1nc2c(F)c(-c3cccc(Cl)c3Cl)c(CCC#N)cc2c2c1cc([C@H]1[C@@H]3CC[C@@H](C3)N1C(=O)C1CC1)n2[C@H]1[C@H]2CN[C@@H]1C2 [Example 11, 3-(1-((1R,4R,5S)-2-azabicyclo[2.1.1]hexan-5-yl)-2-((1S,3R,4R)-2-(cyclopropanecarbonyl)-2-azabicyclo[2.2.1]heptan-3-yl)-7-(2,3-dichlorophenyl)-6-fluoro-4-methyl-1H-pyrrolo[3,2-c]quinolin-8-yl)propanenitrile]
≤ 0.1	≤ 0.1	[2H]C([2H])([2H])O[C@H]1C[C@H]2C[C@@H]1[C@H](c1cc3c(C)nc4c(F)c(-c5cccc(Cl)c5Cl)c(CCC#N)cc4c3n1C1[C@H]3CN[C@@H]1C3)N2C(=O)C1CC1 (stereo partly drawn) [Example 23, 3-(1-((1R,4R)-2-azabicyclo[2.1.1]hexan-5-yl)-2-((1R,3R,4R,5S)-2-(cyclopropanecarbonyl)-5-(methoxy-d3)-2-azabicyclo[2.2.1]heptan-3-yl)-7-(2,3-dichlorophenyl)-6-fluoro-4-methyl-1H-pyrrolo[3,2-c]quinolin-8-yl)propanenitrile]
≤ 0.1	≤ 0.1	Cc1nc2c(F)c(-c3cccc(Cl)c3Cl)c(CCC#N)cc2c2c1cc([C@H]1[C@H]3C[C@H](C[C@@H]3OC(F)F)N1C(=O)C1CC1)n2C1[C@H]2CN[C@@H]1C2 (stereo partly drawn) [Example 30, 3-((7R)-1-((1R,4R)-2-azabicyclo[2.1.1]hexan-5-yl)-2-((1R,3R,4R,5S)-2-(cyclopropanecarbonyl)-5-(difluoromethoxy)-2-azabicyclo[2.2.1]heptan-3-yl)-7-(2,3-dichlorophenyl)-6-fluoro-4-methyl-1H-pyrrolo[3,2-c]quinolin-8-yl)propanenitrile]
≤ 0.1	≤ 0.1	Cc1nc2c(F)c(-c3cccc(Cl)c3Cl)c(CCC#N)cc2c2c1cc([C@H]1[C@H]3C[C@H](C[C@@H]3C)N1C(=O)C1CC1)n2C1[C@H]2CN[C@@H]1C2 (stereo partly drawn) [Example 19, 3-(1-((1R,4R)-2-azabicyclo[2.1.1]hexan-5-yl)-2-((1S,3R,4S,5S)-2-(cyclopropanecarbonyl)-5-methyl-2-azabicyclo[2.2.1]heptan-3-yl)-7-(2,3-dichlorophenyl)-6-fluoro-4-methyl-1H-pyrrolo[3,2-c]quinolin-8-yl)propanenitrile]
≤ 0.1	≤ 0.1	Cc1nc2c(F)c(-c3cccc(Cl)c3Cl)c(CCC#N)cc2c2c1cc([C@H]1[C@H]3C[C@H](C[C@H]3C)N1C(=O)C1CC1)n2C1[C@H]2CN[C@@H]1C2 (stereo partly drawn) [Example 18, 3-(1-((1R,4R)-2-azabicyclo[2.1.1]hexan-5-yl)-2-((1S,3R,4S,5R)-2-(cyclopropanecarbonyl)-5-methyl-2-azabicyclo[2.2.1]heptan-3-yl)-7-(2,3-dichlorophenyl)-6-fluoro-4-methyl-1H-pyrrolo[3,2-c]quinolin-8-yl)propanenitrile]
≤ 0.1	≤ 0.1	[2H]C([2H])([2H])O[C@H]1C[C@H]2C[C@@H]1[C@H](c1cc3c(C)nc4c(F)c(-c5cccc(Cl)c5Cl)c(CCC#N)cc4c3n1[C@H]1[C@H]3CN[C@@H]1C3)N2C(=O)C1CC1 (atropisomer, axis not shown; (Ra)) [Example 4, 3-((Ra)-1-((1R,4R,5S)-2-Azabicyclo[2.1.1]hexan-5-yl)-2-((1R,3R,4R,5S)-2-(cyclopropanecarbonyl)-5-(methoxy-d3)-2-azabicyclo[2.2.1]heptan-3-yl)-7-(2,3-dichlorophenyl)-6-fluoro-4-methyl-1H-pyrrolo[3,2-c]quinolin-8-yl)propanenitrile]
